Laboratory results: patent US20100278855A1, “NEUROPROTECTIVE GANODERMA COMPOSITIONS AND METHODS OF USE” (priority 2009, published 2010)

How the values were obtained:
MES 23.5 cells = test: High-affinity [3H] dopamine uptake assay, MES 23.5 neurons alone; type: cell-based, rat/murine; details: 100 μM MPP+ 24 hr, MES23.5 neurons alone, no Ganoderma
Text: (§1) The dopaminergic cell line MES 23.5 was a gift from professor Wei-dong Le, Department of Neurology, Baylor College of Medicine, Houston. The MES 23.5 cells were derived from somatic cell fusion of rat embryonic mesencephalic cells with murine N18TG2 neuroblastoma cells (Crawford, G. D. et al., 1992, J. Neurosci., 12:3392-3398). MES 23.5 cells display many properties of developing neurons of the SN zona compacta and offer several advantages for such initial studies, including greater homogeneity than primary cultures and susceptibility to both free-radical-mediated cytotoxicity and calcium-dependent cell death. […]
(§2) Cells in each well were washed with 1 ml of Krebs-Ringer buffer (16 mM NaH2PO4, 16 mM Na2HPO4, 119 mM NaCl, 4.7 mM KCl, 1.8 mM CaCl2, 1.2 mM MgSO4, 1.3 mM EDTA, and 5.6 mM glucose; pH 7.4). […] After mixing the lysate with 3 ml of scintillation fluid overnight, radioactivity was determined with Perkin Elmer 1450LSC Luminescence Counter (Waltham, USA.). Specific uptake was determined by subtracting the nonspecific counts for the total activity.
(§3) To assess inflammation mediated neurotoxicy, dopaminergic MES23.5 neurons were exposed to 100 μM MPP^+ or 0.25 μg/ml LPS in the absence or presence of microglia co-culture for 24 hr, and neurotoxicity was assessed using [3H] […]

[1] = system: MES 23.5 and microglia co-cultures; test: High-affinity [3H] dopamine uptake assay, MES 23.5 and microglia co-cultures; type: cell-based, rat; details: no Ganoderma
Text: as §1, §2, §3

superoxide = test: Superoxide assay (Assay Kit-WST) in microglia cultures; type: cell-based, rat; details: stimulus alone: LPS 0.25 μg/ml or MPP+-treated cell membrane fraction 150 μg/ml
Procedure: (§4) Microglia were isolated and purified from brains of 12-24 hours old Wistar rats supplied by Laboratory Animal Center (Le, W. D. et al., 2001, J. Neurosci., 21:8447-8455). Briefly, after brains were dissected and the meninges removed, the tissues were minced and digested with trypsin (0.25% trypsin-EDTA in 0.1M phosphate buffer) for 20 minutes at 37° C., triturated with a fire-polished Pasteur pipette and filtered through a […] nylon cell strainer. After centrifugation for 5 minutes at 800 rpm, the tissues were suspended into DMEM containing 10% fetal bovine serum (FBS), and seeded in 75 cm^2 flasks at a density of 5×10^5/ml cells per flask.
(§5) Two weeks after the seeding, the flasks were shaken at 180 rpm for 4 hours, and the floating cells were collected and centrifuged for 5 minutes at 800 rpm. The cells were resuspended and plated to 96-well plates for further experimental treatment.
(§6) To study the interaction of reactive microglia with MES 23.5 cells, microglia and MES 23.5 cells were co-cultured in 24-well culture plates. Briefly, the purified microglia were plated at a density of 1×10^4/well 1 day before addition of MES 23.5 cells at a ratio of 2:1 (MES 23.5 to microglia). […]
(§7) Samples were prepared similar to NO samples and the production of these factors were determined using rat TNF-α kit, rat IL-1β ELISA kit and superoxide Assay Kit-WST according to the manufacturer's instructions. […]

TNF-α = TNF-α ELISA in microglia culture medium; type: cell-based, rat; details: stimulus alone: LPS 0.25 μg/ml or MPP+-treated cell membrane fraction 150 μg/ml
Procedure: as §4, §5, §6, §7

IL-1β = IL-1β ELISA in microglia culture medium; type: cell-based, rat; details: stimulus alone: LPS 0.25 μg/ml or MPP+-treated cell membrane fraction 150 μg/ml
Procedure: as §4, §5, §6, §7

TNF-α mRNA = test: Real-time PCR of TNF-α mRNA in primary microglial cells; type: cell-based, rat; details: stimulus alone vs control cells
Text: (§8) Total RNA was extracted from primary microglial cells using RNAprep Kit according to the manufacturer's specifications. RNA was primed with random 9 mers and converted into cDNA by reverse transcription (RT) using AMV reverse transcriptase by following the manufacturer's recommended protocol (Schell, J. B. et al., 2007, J. Neuroimmunol., 189:75-87; Liu, B. et al., 2000, J. Pharmacol. Exp. Ther., 293:607-617). The resulting cDNA was then subjected to real-time PCR with SYBR Premix Ex Taq containing a final concentrations of 1×SYBR Green (Molecular Probes) and 0.2 μM of the primer set of interest in a […] reaction. The PCR mixture was run in the DNA engine Opticon 2 (MJ research; Waltham, Mass.). After an initial 10-second 95° C. denaturation step, the reaction was run through 35 cycles at 95° C. for 5 s, 60° C. for 30 s, and 80° C. for 1 s. Melting curve analysis was executed to ensure the resulting products from the reaction had equivalent and appropriate melting temperatures. The specific primers used are listed in Table 1 (Schell, J. B. et al., 2007, J. Neuroimmunol., 189:75-87). The quantification of target transcripts was based on a calibration curve. The “housekeeping” gene β-actin was targeted for an internal control gene. The test gene data were normalized by corresponding β-actin data.

IL-1β mRNA = test: Real-time PCR of IL-1β mRNA in primary microglial cells; type: cell-based, rat; details: stimulus alone vs control cells
Text: as §8

nitric oxide (NO) = test: NO assay (Griess reagent) in microglia culture medium; type: cell-based, rat; details: stimulus alone: LPS 0.25 μg/ml or MPP+-treated cell membrane fraction 150 μg/ml
Procedure: as §4
Two weeks after the seeding, the flasks were shaken at 180 rpm for 4 hours, and the floating cells were collected and centrifuged for 5 minutes at 800 rpm. The cells were resuspended and plated to 96-well plates for further experimental treatment. […]
The production of NO was quantified by measuring the released NO metabolites (nitrates and nitrites) with Griess reagent (Mayer, A. M., 1998, Medicina (B Aires), 58:377-385). […] The medium was incubated with the same volume of Griess reagent at room temperature for 10 minutes before measuring absorbance at 540 nm in a LP-400 ELISA reader (Diagnostics Pasteur, Marne-la-Coquette, France) with appropriate standards. […]

| Molecule | decrease in [3H] DA uptake (MES 23.5 cells) | decrease in [3H] DA uptake ([1]; 100 μM MPP+ 24 hr, MES23.5 and microglia co-cultures) | increase of superoxide level (superoxide) | increase of TNF-α level (TNF-α) | increase of IL-1β level (IL-1β) | TNF-α mRNA expression (TNF-α mRNA) | IL-1β mRNA expression (IL-1β mRNA) | reduction of [3H] DA uptake ([1]; 0.25 LPS 24 hr, neuron-microglia co-cultures) | increase of NO level (nitric oxide (NO)) |
| --- | --- | --- | --- | --- | --- | --- | --- | --- | --- |
| C[n+]1ccc(-c2ccccc2)cc1 [MPP^+] | about 66% | about 74% |  |  |  |  |  |  |  |
| lipopolysaccharide [LPS] |  |  | 5-11 fold | 6-11 fold | 6-11 fold | significantly increased | significantly increased | approximately 50% | 5-11 fold |
